22 molecules from ChEMBL document CHEMBL4052811, “Design, synthesis and antiproliferative activity of novel substituted 2-amino-7,8-dihydropteridin-6(5H)-one derivatives” (Bioorg Med Chem Lett, 2017) can be followed below.

Test [1] concerns BT-549. The test is described as follows: Cytotoxicity against human BT549 cells after 48 hrs by MTT assay. Particulars: BT-549, 48 h. In kind it is functional, cell-based.
Test [2] relates to T47D. The test is described as follows: Cytotoxicity against human T47D cells after 48 hrs by MTT assay. In kind it is functional, cell-based. Background: Formazan colour is commonly taken as a measure of viable cells.
Test [3] deals with MDA-MB-231. The test is described as follows: Cytotoxicity against human MDA-MB-231 cells after 48 hrs by MTT assay. In kind it is functional, cell-based. As to conditions: MDA-MB-231, 48 h.
The test system of test [4] is MDA-MB-468. The test is described as follows: Cytotoxicity against human MDA-MB-468 cells after 48 hrs by MTT assay. In kind it is functional, cell-based. As to conditions: MDA-MB-468, 48 h.
For test [5], the system named is T47D. The test is described as follows: Cell cycle arrest in human T47D cells assessed as accumulation at G0/G1 phase at 3 uM after 12 to 48 hrs by FACS analysis (reference value: 59.67%). In kind it is functional.
Test [6] concerns T47D. The test is described as follows: Cell cycle arrest in human T47D cells assessed as accumulation at S phase at 12 uM after 12 to 48 hrs by FACS analysis (reference value: 21.82%). In kind it is functional.
For test [7], the system named is T47D. The test is described as follows: Cell cycle arrest in human T47D cells assessed as accumulation at G2/M phase at 3 uM after 12 to 48 hrs by FACS analysis (reference value: 18.51%). In kind it is functional. For orientation: In flow cytometry, cells or beads pass a laser one at a time.
Test [8] has as its system T47D. The test is described as follows: Cell cycle arrest in human T47D cells assessed as accumulation at G0/G1 phase at 6 uM after 12 to 48 hrs by FACS analysis (reference value: 59.67%). In kind it is functional.
Test [9] has as its system T47D. The test is described as follows: Cell cycle arrest in human T47D cells assessed as accumulation at S phase at 3 uM after 12 to 48 hrs by FACS analysis (reference value: 21.82%). In kind it is functional.
Test [10] relates to T47D. The test is described as follows: Cell cycle arrest in human T47D cells assessed as accumulation at S phase at 6 uM after 12 to 48 hrs by FACS analysis (reference value: 21.82%). In kind it is functional.
Test [11] deals with T47D. The test is described as follows: Cell cycle arrest in human T47D cells assessed as accumulation at G2/M phase at 12 uM after 12 to 48 hrs by FACS analysis (reference value: 18.51%). In kind it is functional.
Test [12] relates to MDA-MB-468. The test is described as follows: Potency index, ratio of fluorouracil IC50 to compound IC50 for human MDA-MB-468 cells. In kind it is functional.
Test [13] relates to T47D. The test is described as follows: Potency index, ratio of fluorouracil IC50 to compound IC50 for human T47D cells. In kind it is functional.
For test [14], the system named is T47D. The test is described as follows: Cell cycle arrest in human T47D cells assessed as accumulation at G2/M phase at 6 uM after 12 to 48 hrs by FACS analysis (reference value: 18.51%). In kind it is functional.
The test system of test [15] is T47D. The test is described as follows: Cell cycle arrest in human T47D cells assessed as accumulation at G0/G1 phase at 12 uM after 12 to 48 hrs by FACS analysis (reference value: 59.67%). In kind it is functional.
The test system of test [16] is T47D. The test is described as follows: Cell cycle arrest in human T47D cells assessed as accumulation at G1 phase after 12 to 48 hrs by FACS analysis. In kind it is functional, cell-based.
Test [17] relates to BT-549. The test is described as follows: Potency index, ratio of fluorouracil IC50 to compound IC50 for human BT549 cells. In kind it is functional.

Consider `CN1CCN(Nc2ncc3c(n2)N(Cc2ccccc2)CC(=O)N3)CC1`, for which the IC50 is 98.3 µM in [1], 79 µM in test [2], 98.3 µM in test [3] and above 100 µM in test [4].

With `CN1CC(=O)Nc2cnc(NCCc3ccccc3)nc21`, the IC50 in test [1] was 41.2 µM; in test [2] it was 23.2 µM; in [3], 34.2 µM; in [4], 56.2 µM.

`COc1cc(Nc2ncc3c(n2)N(Cc2ccccc2)CC(=O)N3)cc(OC)c1OC`: the IC50 in test [1] is 12.8 µM; in test [2], 8.76 µM; in [3] it was 10.6 µM; in [4] it was above 100 µM.

As for `CS(=O)(=O)N1CCC(Nc2ncc3c(n2)N(Cc2ccccc2)CC(=O)N3)CC1`, the half-maximal inhibitory concentration (IC50) is above 100 µM in [1], above 100 µM in test [2], above 100 µM in test [3] and 97.4 µM in test [4].

For `CN1CC(=O)Nc2cnc(NCc3ccccc3)nc21`, the IC50 in [1] came to 78.8 µM; in test [2], 89.7 µM; in [3], 92 µM; in test [4] it was 94.4 µM.

For the molecule `COc1cccc(Nc2ncc3c(n2)N(Cc2ccccc2)CC(=O)N3)c1`, the concentration for half-maximal inhibition (IC50) in test [1] amounted to 81.1 µM; in test [2], 78.7 µM; in [3] it was 99.9 µM; in test [4], 40.4 µM.

In the case of `COc1ccc(Nc2ncc3c(n2)NCC(=O)N3)cc1`, the IC50 in test [1] is 95 µM; in [2], 89.2 µM; in test [3] it was above 100 µM; in test [4] it was above 100 µM.

`COc1cccc(CNc2ncc3c(n2)N(Cc2ccccc2)CC(=O)N3)c1`: the IC50 in [1] stood at 15.6 µM; in test [2], 15.3 µM; in test [3], 47 µM; in test [4], 23.2 µM.

For the molecule `O=C1CN(Cc2ccccc2)c2nc(Nc3ccccc3)ncc2N1`, the IC50 in [1] worked out at 11.9 µM; in [2], 15.2 µM; in test [3], 37 µM; in [4], 20.6 µM.

In the case of `O=C1CNc2nc(Nc3ccc(Cl)cc3)ncc2N1`, the IC50 amounted to 17.7 µM in test [1], 29.3 µM in test [2], 41.6 µM in test [3] and 15 µM in test [4].

With `COc1cccc(Nc2ncc3c(n2)N(C)CC(=O)N3)c1`, the IC50 in test [1], in test [2], in [3] and in test [4] was above 100 µM in each case.

For the molecule `O=c1[nH]cc(F)c(=O)[nH]1` [FLUOROURACIL], the IC50 in test [1] amounted to 98.2 µM; in test [2] it was 171 µM; in test [3], 53.5 µM; in [4], 95.7 µM.

For `CCOC(=O)CNc1ncc2c(n1)N(Cc1ccccc1)CC(=O)N2`, the IC50 in test [1], in test [2], in [3] and in test [4] was above 100 µM in each case.

With `COc1cc(Nc2ncc3c(n2)N(C)CC(=O)N3)cc(OC)c1OC`, the IC50 in test [1] stood at 45.2 µM; in test [2], 56.2 µM; in [3], 46.2 µM; in [4], 66.1 µM.

Consider `CCOC(=O)CN(Cc1ccccc1)c1nc(NCCc2ccccc2)ncc1[N+](=O)[O-]`, for which the IC50 amounted to 13.7 µM in [1], 6.59 µM in [2], 24.2 µM in test [3] and 6.26 µM in [4].

With `O=C1CNc2nc(Nc3ccc(F)cc3)ncc2N1`, the IC50 was 92.4 µM in test [1], above 100 µM in test [2], above 100 µM in [3] and above 100 µM in test [4].

`O=C1CNc2nc(Nc3ccccc3)ncc2N1`: the IC50 was above 100 µM in [1], 85.4 µM in [2], above 100 µM in [3] and above 100 µM in test [4].

As for `COc1cccc(Nc2ncc3c(n2)NCC(=O)N3)c1`, the IC50 in test [1] was above 100 µM; in test [2], above 100 µM; in [3], 93.2 µM; in test [4] it was above 100 µM.

In the case of `CN1CC(=O)Nc2cnc(Nc3ccc(Cl)cc3)nc21`, the 50% inhibitory concentration (IC50) in test [1] is 91 µM; in test [2], 36 µM; in test [3], above 100 µM; in test [4], 31.3 µM.

On to `O=C1CN(Cc2ccccc2)c2nc(NCCc3ccccc3)ncc2N1`, for which the Activity in test [5] was found to be 61.25%; in test [6], 4.34%; in [7], 19.76%; in [8] it was 72.7%; in test [9], 18.98%; in test [10] it was 10.8%. Besides, the Activity is 20.98% in [11], 16.5% in test [14], 74.68% in test [15] and “Dose-dependent effect” in test [16]. Also, the IC50 in test [1] came to 10.7 µM; in [2], 6.37 µM; in [3], 22.4 µM; in [4], 7.75 µM. Besides, the “Ratio IC50” value in test [12] is on record as 49; in [13], 11; in test [17] it was 8.

In the case of `O=C1CN(Cc2ccccc2)c2nc(Nc3ccc(Cl)cc3)ncc2N1`, the IC50 in test [1], in test [2], in test [3] and in test [4] was above 100 µM throughout.

For the molecule `CN1CC(=O)Nc2cnc(Nc3ccccc3)nc21`, the 50% inhibitory concentration (IC50) in test [1], in [2], in [3] and in test [4] was above 100 µM throughout.

In general, IC50 refers to the concentration at which inhibition is half-maximal. Low readings indicate inhibition by little substance, high ones a need for much substance.
